In patent US11597703B2, “Caspase inhibitors and methods of use thereof” (Histogen Inc., priority 2019, dated 2023):

What was measured:
Format in all cases: biochemical
Caspase-1 = target: T1, Caspase-1 (Homo sapiens, UniProt P29466); assay: Caspase-1 enzyme inhibition assay (Ac-YVAD-pNA substrate), IC50
T1 construct: purchased Enzo Biosciences
T1 sequence (P29466 120-297 limits assumed): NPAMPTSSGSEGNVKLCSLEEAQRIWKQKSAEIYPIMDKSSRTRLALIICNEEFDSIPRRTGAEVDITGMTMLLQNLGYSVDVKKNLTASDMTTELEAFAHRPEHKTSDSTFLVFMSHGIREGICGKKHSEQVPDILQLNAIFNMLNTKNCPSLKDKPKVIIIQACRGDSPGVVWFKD
T1 sequence (P29466 317-404 limits assumed): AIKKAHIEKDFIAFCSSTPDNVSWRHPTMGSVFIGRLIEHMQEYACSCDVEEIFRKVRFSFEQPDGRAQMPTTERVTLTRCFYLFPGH
Experimental: (§1) Human caspases were purchased from Enzo Biosciences and used according to the manufacturer's instructions. An exemplary caspase assay, for Caspase-1, is provided below:
Caspase-1 was diluted to 10 U/μl in assay buffer consisting of 50 mM HEPES, pH 7.4, 100 mM NaCl, 0.1% CHAPS, 1 mM EDTA, 10% glycerol and 10 mM DTT.
45 μl of assay buffer was added into ½ volume microtiter plate. The plate was allowed to equilibrate to assay temperature. 5 μl of Caspase-1 (10 U/μl) was added to each appropriate well. Two 2 blank wells containing assay buffer alone without Caspase-1 were included on the plate.
The reaction was started by the addition of 50 μl Ac-YVAD-pNA substrate, for a final substrate concentration of 200 μM. The reaction was continuously monitored at 405 nm. The data was graphed as OD405 nm vs time, and the slope was determined over the linear portion of the curve. The rates in OD/min were converted to substrate/min using an extinction coefficient for p-nitroaniline of 10,500M-1 cm-1, and were adjusted for pathlength of sample. […]

Caspase 7 = target: T2, Caspase 7 (Homo sapiens, UniProt P55210); assay: Caspase 7 enzymatic inhibition assay, IC50; conditions: read-out: Caspase 7 enzyme inhibition IC50
T2 construct: purchased Enzo Biosciences
T2 sequence (P55210 24-198 limits assumed): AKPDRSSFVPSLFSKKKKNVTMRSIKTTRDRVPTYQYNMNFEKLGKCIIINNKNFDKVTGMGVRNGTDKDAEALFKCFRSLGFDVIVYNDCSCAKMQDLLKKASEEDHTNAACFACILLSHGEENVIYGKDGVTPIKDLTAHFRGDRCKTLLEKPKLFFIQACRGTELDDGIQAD
T2 sequence (P55210 207-303 limits assumed): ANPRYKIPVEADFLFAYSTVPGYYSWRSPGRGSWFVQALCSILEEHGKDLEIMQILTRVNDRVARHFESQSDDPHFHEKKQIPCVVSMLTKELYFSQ
Experimental: as §1
(§2) Enzymatic assays were conducted for Caspase-3, 6 and 7 activity according to the manufacture's instructions.

Caspase-3 = target: T3, Caspase-3 (Homo sapiens, UniProt P42574); assay: Caspase-3 enzymatic inhibition assay, IC50; conditions: read-out: Caspase 3 enzyme inhibition IC50
T3 construct: purchased Enzo Biosciences
T3 sequence (P42574 29-175 limits assumed): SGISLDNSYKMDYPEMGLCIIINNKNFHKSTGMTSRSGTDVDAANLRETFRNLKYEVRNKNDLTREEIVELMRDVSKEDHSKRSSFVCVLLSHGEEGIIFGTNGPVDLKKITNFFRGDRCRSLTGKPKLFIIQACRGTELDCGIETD
T3 sequence (P42574 176-277 limits assumed): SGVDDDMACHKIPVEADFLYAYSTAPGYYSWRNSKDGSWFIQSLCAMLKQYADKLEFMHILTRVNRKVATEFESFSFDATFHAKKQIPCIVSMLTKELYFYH
Experimental: as §1, §2

Caspase 6 = target: T4, Caspase 6 (Homo sapiens, UniProt P55212); assay: Caspase 6 enzymatic inhibition assay, IC50; conditions: read-out: Caspase 6 enzyme inhibition IC50
T4 construct: purchased Enzo Biosciences
T4 sequence (P55212 24-179 limits assumed): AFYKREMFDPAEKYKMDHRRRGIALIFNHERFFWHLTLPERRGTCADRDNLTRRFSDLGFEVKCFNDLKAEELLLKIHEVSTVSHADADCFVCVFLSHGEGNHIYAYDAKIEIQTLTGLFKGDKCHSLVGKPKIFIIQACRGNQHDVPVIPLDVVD
T4 sequence (P55212 194-293 limits assumed): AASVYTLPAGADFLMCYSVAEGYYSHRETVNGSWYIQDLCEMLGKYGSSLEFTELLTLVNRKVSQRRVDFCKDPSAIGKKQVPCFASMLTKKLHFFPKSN
Experimental: as §1, §2

Question: With `C[C@H](NC(=O)C(=O)Nc1c(F)cccc1F)C(=O)N[C@@H](CCC(=O)O)C(=O)COc1cc(C(F)(F)F)nc(C(F)(F)F)n1` [Example 33, (S)-6-((2,6-bis(trifluoromethyl)pyrimidin-4-yl)oxy)-4-((S)-2-(2-((2,6-difluorophenyl)amino)-2-oxoacetamido)propanamido)-5-oxohexanoic acid] as the molecule, how does the IC50 (Caspase-1) read?
Answer: ≤ 10 nM

Question: And the IC50 (Caspase 7)?
Answer: ≥ 1000 nM

Question: And the IC50 (Caspase-3)?
Answer: ≥ 1000 nM

Question: And the IC50 (Caspase 6)?
Answer: ≥ 1000 nM

Question: How did the IC50 (Caspase-1) turn out when `C[C@H](NC(=O)C(=O)Nc1ccc(OC(F)(F)F)cc1)C(=O)N[C@@H](CCC(=O)O)C(=O)COc1c(F)c(F)cc(F)c1F` [Example 34, (S)-5-oxo-4-((S)-2-(2-oxo-2-((4-(trifluoromethoxy)phenyl)amino)acetamido)propanamido)-6-(2,3,5,6-tetrafluorophenoxy) hexanoic acid] was run?
Answer: ≤ 10 nM

Question: And the IC50 (Caspase 7)?
Answer: ≥ 1000 nM

Question: What about the IC50 (Caspase-3) of the same molecule?
Answer: ≥ 1000 nM

Question: What about the IC50 (Caspase 6) of the same molecule?
Answer: ≥ 1000 nM

Question: With `C[C@H](NC(=O)C(=O)Nc1cnc2ccccc2c1)C(=O)N[C@@H](CCC(=O)O)C(=O)COc1c(F)c(F)cc(F)c1F` [Example 35, (S)-5-oxo-4-((S)-2-(2-oxo-2-(quinolin-3-ylamino)acetamido)propanamido)-6-(2,3,5,6-tetrafluorophenoxy)hexanoic acid] as the molecule, how does the IC50 (Caspase-1) read?
Answer: ≤ 10 nM

Question: What about the IC50 (Caspase 7) of the same molecule?
Answer: ≥ 1000 nM

Question: What about the IC50 (Caspase-3) of the same molecule?
Answer: ≥ 1000 nM

Question: What about the IC50 (Caspase 6) of the same molecule?
Answer: ≥ 1000 nM

Question: For `C[C@H](NC(=O)C(=O)Nc1cccc2cccnc12)C(=O)N[C@@H](CCC(=O)O)C(=O)COc1c(F)c(F)cc(F)c1F` [Example 36, (S)-5-oxo-4-((S)-2-(2-oxo-2-(quinolin-8-ylamino)acetamido)propanamido)-6-(2,3,5,6-tetrafluorophenoxy)hexanoic acid], which IC50 (Caspase-1) is on record?
Answer: ≤ 10 nM

Question: What about the IC50 (Caspase 7) of the same molecule?
Answer: ≥ 1000 nM

Question: What about the IC50 (Caspase-3) of the same molecule?
Answer: ≥ 1000 nM

Question: What about the IC50 (Caspase 6) of the same molecule?
Answer: ≥ 1000 nM

Question: What does the source list for `C[C@H](NC(=O)C(=O)Nc1ccncc1)C(=O)N[C@@H](CCC(=O)O)C(=O)COc1c(F)c(F)cc(F)c1F` [Example 37, (S)-5-oxo-4-((S)-2-(2-oxo-2-(pyridin-4-ylamino)acetamido)propanamido)-6-(2,3,5,6-tetrafluorophenoxy)hexanoic acid]?
Answer: IC50 (Caspase-1): ≤ 10 nM; IC50 (Caspase 7): ≥ 1000 nM; IC50 (Caspase-3): ≥ 1000 nM; IC50 (Caspase 6): ≥ 1000 nM

Question: For `C[C@H](NC(=O)C(=O)Nc1c(F)cccc1F)C(=O)N[C@H](CCC(=O)O)C(=O)COc1c(F)c(F)cc(F)c1F` [Example 38, (R)-4-((S)-2-(2-((2,6-difluorophenyl)amino)-2-oxoacetamido)propanamido)-5-oxo-6-(2,3,5,6-tetrafluorophenoxy)hexanoic acid], which IC50 (Caspase-1) is on record?
Answer: ≤ 10 nM

Question: And the IC50 (Caspase 7)?
Answer: ≥ 1000 nM

Question: And the IC50 (Caspase-3)?
Answer: ≥ 1000 nM

Question: What about the IC50 (Caspase 6) of the same molecule?
Answer: ≥ 1000 nM

Question: For `C[C@H](NC(=O)C(=O)Nc1ccccn1)C(=O)N[C@@H](CCC(=O)O)C(=O)COc1c(F)c(F)cc(F)c1F` [Example 39, (S)-5-oxo-4-((S)-2-(2-oxo-2-(pyridin-2-ylamino)acetamido)propanamido)-6-(2,3,5,6-tetrafluorophenoxy)hexanoic acid], which IC50 (Caspase-1) is on record?
Answer: ≤ 10 nM

Question: And the IC50 (Caspase 7)?
Answer: ≥ 1000 nM

Question: What about the IC50 (Caspase-3) of the same molecule?
Answer: ≥ 1000 nM

Question: And the IC50 (Caspase 6)?
Answer: ≥ 1000 nM

Question: What does the source list for `C[C@H](NC(=O)C(=O)Nc1cccnc1)C(=O)N[C@@H](CCC(=O)O)C(=O)COc1c(F)c(F)cc(F)c1F` [Example 40, (S)-5-oxo-4-((S)-2-(2-oxo-2-(pyridin-3-ylamino)acetamido)propanamido)-6-(2,3,5,6-tetrafluorophenoxy)hexanoic acid]?
Answer: IC50 (Caspase-1): ≤ 10 nM; IC50 (Caspase 7): ≥ 1000 nM; IC50 (Caspase-3): ≥ 1000 nM; IC50 (Caspase 6): ≥ 1000 nM

Question: With `Cc1cc(C)nc(NC(=O)C(=O)N[C@@H](C)C(=O)N[C@@H](CCC(=O)O)C(=O)COc2c(F)c(F)cc(F)c2F)n1` [Example 41, (S)-4-((S)-2-(2-((4,6-dimethylpyrimidin-2-yl)amino)-2-oxoacetamido)propanamido)-5-oxo-6-(2,3,5,6-tetrafluorophenoxy)hexanoic acid] as the molecule, how does the IC50 (Caspase-1) read?
Answer: ≤ 10 nM

Question: And the IC50 (Caspase 7)?
Answer: ≥ 1000 nM

Question: What about the IC50 (Caspase-3) of the same molecule?
Answer: ≥ 1000 nM

Question: And the IC50 (Caspase 6)?
Answer: ≥ 1000 nM
